Reference: patent US12678507B2, “Protein tyrosine kinase 6 (PTK6) degradation / disruption compounds and methods of use” (Icahn School of Medicine at Mount Sinai, priority 2018, dated 2026)

Molecular target: T1, PTK6 (Homo sapiens, UniProt Q13882)
T1 construct: endogenous in cells; host or cells: MDA-MB231 cells (ATCC)
Assay: Western blot of PTK6 protein levels in MDA-MB231 cells
Assay type: cell-based
Details: MDA-231 (MDA-MB231) cells, 500 nM, 24 hours, Western blot (FIGS. 3-5)
Method: FIGS. 2-5. Effects of exemplary compounds on reducing PTK6 protein levels in breast cancer cells. Triple negative MDA-MB231 cells were treated for 24 hours with 500 nM, 2 uM or 2.5 uM of test compound and lysed. Proteins were resolved by SDS/PAGE and immunoblotted with antibody to PTK6 (Santa Cruz, Cell Signaling) or GAPDH loading control (Cell Signaling).
FIG. 13. PTK6 degraders suppress PTK6 expression. MDA-MB231 cells were treated with compounds (500 nM or 1 uM) for 24 hours in monolayer cultures. Cells were lysed and lysates were probed with anti-PTK6 antibody.
MDA-MB231 cells were treated with DMSO or indicated compounds at 2.5 uM, 2 uM or 500 nM for 24 hours.
MDA-MB231 cells were treated with compounds (500 nM or 1 uM) for 24 hours in monolayer cultures. Cells were lysed and lysates were probed with anti-PTK6 antibody.
Cells were lysed in 1% NP-40 lysis buffer containing NaF, Na3VO4, Leupeptin, PMSF, aprotinin, and phosphatase inhibitor (PhosSTOP, Roche) as described previously (Irie et al., 2010). Cleared cell lysates were stored at −80° C. and were analyzed by western analysis as described previously (Irie et al., 2010).

T1 sequence (Q13882 whole entry): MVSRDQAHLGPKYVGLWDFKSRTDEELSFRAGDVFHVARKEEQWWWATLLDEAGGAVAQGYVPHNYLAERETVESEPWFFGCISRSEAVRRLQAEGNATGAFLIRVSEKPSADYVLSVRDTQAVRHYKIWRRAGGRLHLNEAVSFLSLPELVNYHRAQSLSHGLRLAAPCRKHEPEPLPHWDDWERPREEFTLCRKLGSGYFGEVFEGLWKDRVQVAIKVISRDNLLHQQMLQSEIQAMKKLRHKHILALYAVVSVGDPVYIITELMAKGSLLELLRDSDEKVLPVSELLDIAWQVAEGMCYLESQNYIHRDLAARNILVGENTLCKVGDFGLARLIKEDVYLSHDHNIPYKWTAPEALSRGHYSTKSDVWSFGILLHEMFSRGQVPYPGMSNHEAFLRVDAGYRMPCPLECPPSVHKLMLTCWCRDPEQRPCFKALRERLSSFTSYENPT

With `Cc1ncsc1-c1ccc(CNC(=O)[C@@H]2C[C@@H](O)CN2C(=O)[C@@H](NC(=O)CCCCC(=O)N2CCN(C(=O)c3ccc(Nc4nc(C5CC5)cn5c(-c6cn[nH]c6)cnc45)c(F)c3)CC2)C(C)(C)C)cc1` [YX79-11, (2S,4R)-1-((S)-2-(6-(4-(4-((6-cyclopropyl-3-(1H-pyrazol-4-yl)imidazo[1,2-a]pyrazin-8-yl)amino)-3-fluorobenzoyl)piperazin-1-yl)-6-oxohexanamido)-3,3-dimethylbutanoyl)-4-hydroxy-N-(4-(4-methylthiazol-5-yl)benzyl)pyrrolidine-2-carboxamide] the “reducing PTK6 protein levels / suppress PTK6 expression” value was “potently suppress PTK6 expression”.
With `Cc1ncsc1-c1ccc(CNC(=O)[C@@H]2C[C@@H](O)CN2C(=O)[C@@H](NC(=O)CCCCCCC(=O)NCCN2CCN(C(=O)c3ccc(Nc4nc(C5CC5)cn5c(-c6cn[nH]c6)cnc45)c(F)c3)CC2)C(C)(C)C)cc1` [YX79-59, N^1-(2-(4-(4-((6-cyclopropyl-3-(1H-pyrazol-4-yl)imidazo[1,2-a]pyrazin-8-yl)amino)-3-fluorobenzoyl)piperazin-1-yl)ethyl)-N^8-((S)-1-((2S,4R)-4-hydroxy-2-((4-(4-methylthiazol-5-yl)benzyl)carbamoyl)pyrrolidin-1-yl)-3,3-dimethyl-1-oxobutan-2-yl)octanediamide] the “reducing PTK6 protein levels / suppress PTK6 expression” value was “potently suppress PTK6 expression”.
In the case of `Cc1ncsc1-c1ccc(CNC(=O)[C@@H]2C[C@@H](O)CN2C(=O)[C@@H](NC(=O)COCCOCC(=O)NCCN2CCN(C(=O)c3ccc(Nc4nc(C5CC5)cn5c(-c6cn[nH]c6)cnc45)c(F)c3)CC2)C(C)(C)C)cc1` [YX79-65, (2S,4R)-1-((S)-2-(tert-butyl)-14-(4-(4-((6-cyclopropyl-3-(1H-pyrazol-4-yl)imidazo[1,2-a]pyrazin-8-yl)amino)-3-fluorobenzoyl)piperazin-1-yl)-4,11-dioxo-6,9-dioxa-3,12-diazatetradecanoyl)-4-hydroxy-N-(4-(4-methylthiazol-5-yl)benzyl)pyrrolidine-2-carboxamide], the “reducing PTK6 protein levels / suppress PTK6 expression” value is reported as “potently suppress PTK6 expression”.
In the case of `Cc1ncsc1-c1ccc(CNC(=O)[C@@H]2C[C@@H](O)CN2C(=O)[C@@H](NC(=O)CCCCNC(=O)CN2CCN(C(=O)c3ccc(Nc4nc(C5CC5)cn5c(-c6cn[nH]c6)cnc45)c(F)c3)CC2)C(C)(C)C)cc1` [YX39-101, (2S,4R)-1-((S)-2-(5-(2-(4-(4-((6-cyclopropyl-3-(1H-pyrazol-4-yl)imidazo[1,2-a]pyrazin-8-yl)amino)-3-fluorobenzoyl)piperazin-1-yl)acetamido)pentanamido)-3,3-dimethylbutanoyl)-4-hydroxy-N-(4-(4-methylthiazol-5-yl)benzyl)pyrrolidine-2-carboxamide], the “reducing PTK6 protein levels / suppress PTK6 expression” value is reported as “effective in reducing PTK6 protein levels”.
In the case of `Cc1ncsc1-c1ccc([C@H](C)NC(=O)[C@@H]2C[C@@H](O)CN2C(=O)[C@@H](NC(=O)COCCOCCOCCNC(=O)CN2CCN(C(=O)c3ccc(Nc4nc(C5CC5)cn5c(-c6cn[nH]c6)cnc45)c(F)c3)CC2)C(C)(C)C)cc1` [YX69-159, (2S,4R)-1-((S)-2-(tert-butyl)-17-(4-(4-((6-cyclopropyl-3-(1H-pyrazol-4-yl)imidazo[1,2-a]pyrazin-8-yl)amino)-3-fluorobenzoyl)piperazin-1-yl)-4,16-dioxo-6,9,12-trioxa-3,15-diazaheptadecanoyl)-4-hydroxy-N-((S)-1-(4-(4-methylthiazol-5-yl)phenyl)ethyl)pyrrolidine-2-carboxamide], the “reducing PTK6 protein levels / suppress PTK6 expression” value is reported as “potently suppress PTK6 expression”.
For `Cc1ncsc1-c1ccc(CNC(=O)[C@@H]2C[C@@H](O)CN2C(=O)[C@@H](NC(=O)CCCCCNC(=O)CN2CCN(C(=O)c3ccc(Nc4nc(C5CC5)cn5c(-c6cn[nH]c6)cnc45)c(F)c3)CC2)C(C)(C)C)cc1` [YX39-102, (2S,4R)-1-((S)-2-(6-(2-(4-(4-((6-cyclopropyl-3-(1H-pyrazol-4-yl)imidazo[1,2-a]pyrazin-8-yl)amino)-3-fluorobenzoyl)piperazin-1-yl)acetamido)hexanamido)-3,3-dimethylbutanoyl)-4-hydroxy-N-(4-(4-methylthiazol-5-yl)benzyl)pyrrolidine-2-carboxamide], the “reducing PTK6 protein levels / suppress PTK6 expression” value was “effective in reducing PTK6 protein levels”.
With `Cc1ncsc1-c1ccc(CNC(=O)[C@@H]2C[C@@H](O)CN2C(=O)[C@@H](NC(=O)CCCCCCCCCNC(=O)CN2CCN(C(=O)c3ccc(Nc4nc(C5CC5)cn5c(-c6cn[nH]c6)cnc45)c(F)c3)CC2)C(C)(C)C)cc1` [YX39-106, (2S,4R)-1-((S)-2-(10-(2-(4-(4-((6-cyclopropyl-3-(1H-pyrazol-4-yl)imidazo[1,2-a]pyrazin-8-yl)amino)-3-fluorobenzoyl)piperazin-1-yl)acetamido)decanamido)-3,3-dimethylbutanoyl)-4-hydroxy-N-(4-(4-methylthiazol-5-yl)benzyl)pyrrolidine-2-carboxamide] the “reducing PTK6 protein levels / suppress PTK6 expression” value was “effective in reducing PTK6 protein levels”.
`O=C1CCC(N2C(=O)c3cccc(NCCOCCOCCOCCC(=O)N4CCN(C(=O)c5ccc(Nc6nc(C7CC7)cn7c(-c8cn[nH]c8)cnc67)c(F)c5)CC4)c3C2=O)C(=O)N1` (stereo not shown) [YX79-37, 4-((2-(2-(2-(3-(4-(4-((6-cyclopropyl-3-(1H-pyrazol-4-yl)imidazo[1,2-a]pyrazin-8-yl)amino)-3-fluorobenzoyl)piperazin-1-yl)-3-oxopropoxy)ethoxy)ethoxy)ethyl)amino)-2-(2,6-dioxopiperidin-3-yl)isoindoline-1,3-dione] was tested, and the “reducing PTK6 protein levels / suppress PTK6 expression” value was “potently suppress PTK6 expression”.
In the case of `Cc1ncsc1-c1ccc(CNC(=O)[C@@H]2C[C@@H](O)CN2C(=O)[C@@H](NC(=O)COCCOCCOCC(=O)N2CCN(C(=O)c3ccc(Nc4nc(C5CC5)cn5c(-c6cn[nH]c6)cnc45)c(F)c3)CC2)C(C)(C)C)cc1` [YX79-42, (2S,4R)-1-((S)-2-(tert-butyl)-14-(4-(4-((6-cyclopropyl-3-(1H-pyrazol-4-yl)imidazo[1,2-a]pyrazin-8-yl)amino)-3-fluorobenzoyl)piperazin-1-yl)-4,14-dioxo-6,9,12-trioxa-3-azatetradecanoyl)-4-hydroxy-N-(4-(4-methylthiazol-5-yl)benzyl)pyrrolidine-2-carboxamide], the “reducing PTK6 protein levels / suppress PTK6 expression” value is reported as “potently suppress PTK6 expression”.
`Cc1ncsc1-c1ccc(CNC(=O)[C@@H]2C[C@@H](O)CN2C(=O)[C@@H](NC(=O)CCOCCC(=O)N2CCN(C(=O)c3ccc(Nc4nc(C5CC5)cn5c(-c6cn[nH]c6)cnc45)c(F)c3)CC2)C(C)(C)C)cc1` [YX79-15, (2S,4R)-1-((S)-2-(3-(3-(4-(4-((6-cyclopropyl-3-(1H-pyrazol-4-yl)imidazo[1,2-a]pyrazin-8-yl)amino)-3-fluorobenzoyl)piperazin-1-yl)-3-oxopropoxy)propanamido)-3,3-dimethylbutanoyl)-4-hydroxy-N-(4-(4-methylthiazol-5-yl)benzyl)pyrrolidine-2-carboxamide] was tested, and the “reducing PTK6 protein levels / suppress PTK6 expression” value was “potently suppress PTK6 expression”.
`Cc1ncsc1-c1ccc(CNC(=O)[C@@H]2C[C@@H](O)CN2C(=O)[C@@H](NC(=O)CCCC(=O)N2CCN(C(=O)c3ccc(Nc4nc(C5CC5)cn5c(-c6cn[nH]c6)cnc45)c(F)c3)CC2)C(C)(C)C)cc1` [YX79-10, (2S,4R)-1-((S)-2-(5-(4-(4-((6-cyclopropyl-3-(1H-pyrazol-4-yl)imidazo[1,2-a]pyrazin-8-yl)amino)-3-fluorobenzoyl)piperazin-1-yl)-5-oxopentanamido)-3,3-dimethylbutanoyl)-4-hydroxy-N-(4-(4-methylthiazol-5-yl)benzyl)pyrrolidine-2-carboxamide] was tested, and the “reducing PTK6 protein levels / suppress PTK6 expression” value was “potently suppress PTK6 expression”.
With `Cc1ncsc1-c1ccc(CNC(=O)[C@@H]2C[C@@H](O)CN2C(=O)[C@@H](NC(=O)CCCCCCCNC(=O)CN2CCN(C(=O)c3ccc(Nc4nc(C5CC5)cn5c(-c6cn[nH]c6)cnc45)c(F)c3)CC2)C(C)(C)C)cc1` [YX39-104, (2S,4R)-1-((S)-2-(8-(2-(4-(4-((6-cyclopropyl-3-(1H-pyrazol-4-yl)imidazo[1,2-a]pyrazin-8-yl)amino)-3-fluorobenzoyl)piperazin-1-yl)acetamido)octanamido)-3,3-dimethylbutanoyl)-4-hydroxy-N-(4-(4-methylthiazol-5-yl)benzyl)pyrrolidine-2-carboxamide] the “reducing PTK6 protein levels / suppress PTK6 expression” value was “effective in reducing PTK6 protein levels”.
For `Cc1ncsc1-c1ccc(CNC(=O)[C@@H]2C[C@@H](O)CN2C(=O)[C@@H](NC(=O)CCCCCCCCCCNC(=O)CN2CCN(C(=O)c3ccc(Nc4nc(C5CC5)cn5c(-c6cn[nH]c6)cnc45)c(F)c3)CC2)C(C)(C)C)cc1` [YX39-107, (2S,4R)-1-((S)-2-(11-(2-(4-(4-((6-cyclopropyl-3-(1H-pyrazol-4-yl)imidazo[1,2-a]pyrazin-8-yl)amino)-3-fluorobenzoyl)piperazin-1-yl)acetamido)undecanamido)-3,3-dimethylbutanoyl)-4-hydroxy-N-(4-(4-methylthiazol-5-yl)benzyl)pyrrolidine-2-carboxamide], the “reducing PTK6 protein levels / suppress PTK6 expression” value was “effective in reducing PTK6 protein levels”.
